Assay results: patent publication US5609872A, “Peptides comprising a protective epitope from blood stages of plasmodium falciparum” (priority 1990, dated 1997)
Ends that are not written are not given here.

Tested on: mAb 33G2
Assay: PEPSCAN ELISA of rod-bound peptides with mAb 33G2
Type: binding, human
Settings: culture supernatant with mAb 33G2 (approx. 10 μg/ml) diluted 1:100; N-acetylated peptides on rods
Procedure: The detailed epitope specificity on the single amino acid level for the mAb 33G2 was performed using the multiple peptide synthesis technique (PEPSCAN) developed by Geysen et al. (J. Immunol. Methods 102, 259-274, 1987). Peptides were synthesized on polyethylene rods on which polymers of polyacrylic acid had been formed by […]. Polyethylene rods and Pmoc L-amino acids performed as active esthers (Cambridge Research Biochemicals, UK) were used for synthesis according to instructions of the manufacturer. The N-terminals of all peptides were acetylated. As a basis for the mAb 33G2 epitope analysis, the sequence of amino acid residues 1-19 [SEQ ID NO.: 15] (ESVTEEIAEEDKSVIEEAV) of Ag332 (Mattei, D., Berzins, K., Wahlgren, M., Udomsangpetch, R., Perlmann, P., Griesser, H. W., Scherf, A., M uller-Hill, B., Bonnefoy, S., Guillotte, M., Langsley, G., Pereira da Silva, L. and Mercereau-Puijalon, O. (1989) Cross-reactive antigenic determinants present on different Plasmodium falciparum blood-stage antigens. Parasite Immunol. 11, 15-30) was used, containing sequences of the peptides with the highest reactivity with the mAb (Udomsangpetch, R., Carlsson, J., W ahlin, B., Holmquist, G., Ozaki, L. S., Scherf, A., Mattei, D., Mercereau-Puijalon, O., Uni, S., Aikawa, M., Berzins, K. and Perlmann, P. (1989) Reactivity of the human monoclonal antibody 33G2 with repeated sequences of three distinct Plasmodium falciparum antigens. J. Immunol. 142, 3620-3626). All possible overlapping heptapeptides, hexpeptides, pentapeptides and tetrapeptides covering the mentioned sequence were synthesized and their reactivity with mAb 33G2 was analysed by ELISA as described by Geysen et al. (J. Immunol. Methods 102, 259-274, 1987). Culture supernatant containing mAb 33G2 (approx. 10 μg/ml), was diluted 1:100. Peptide containing rods were washed in phosphate-buffered saline with 0.05% Tween 20 between all steps in ELISA. Bound antibodies were detected with a rabbit antihuman IgM-alkaline phosphatase conjugate (Sigma, St. Louis, Mo.) using p-nitrophenyl phosphate, disodium salt (Sigma) as substrate.

Substance	reactivity with mAb 33G2 in ELISA (absorbance at 405 nm), in words
val-ala-glu-glu-ile (VAEEI)	recognized
ile-ala-asp-glu-ile (IADEI)	recognized
thr-glu-glu-ile-ala-glu (TEEIAE) [hexapeptide, amino acids 4-9 of Ag332]	recognized
VVEEV: pentapeptide epitope analog of residue 3-7 of Ag332; printed as SEQ ID NO.:19 (LVEEV)	recognized
val-thr-glu-glu-ile-ala (VTEEIA) [hexapeptide, amino acids 3-8 of Ag332]	recognized
IADEV: pentapeptide epitope analog of residue 3-7 of Ag332	recognized
VTEEIAE [val-thr-glu-glu-ile-ala-glu, heptapeptide, amino acids 3-9 of Ag332]	showed reactivity
TEEIAEE [thr-glu-glu-ile-ala-glu-glu, heptapeptide, amino acids 4-10 of Ag332]	showed reactivity
ser-val-thr-glu-glu-ile (SVTEEI) [hexapeptide, amino acids 2-7 of Ag332]	recognized
ESVTEEI [glu-ser-val-thr-glu-glu-ile, heptapeptide, amino acids 1-7 of Ag332]	showed reactivity
SVTEEIA [ser-val-thr-glu-glu-ile-ala, heptapeptide, amino acids 2-8 of Ag332]	showed reactivity
LVEEV: pentapeptide epitope analog of residue 3-7 of Ag332	recognized
ile-thr-glu-glu-ile (ITEEI)	recognized
YLDEV: pentapeptide epitope analog of residue 3-7 of Ag332	did not react

Tested on: binding of mAb 33G2 to Pf11/RESA
Assay: not given
Settings: peptide mixed with a fixed concentration of the mAb; up to 200 μg/ml tested; cited from earlier work

Substance	peptide concentration giving complete inhibition of mAb 33G2 immunofluorescence
(EEVVEEVVP)2: synthetic peptide corresponding to repeated sequence in antigen Pf11.1 (also: dimer of the repeat (EEVVEEVVP)2)	100 µg/mL
Y (SVTEEIAEEDK)2: peptide corresponding to a dimer of amino acids 2-12 in antigen Ag332 (YSVTEEIAEEDK; also: dimer of the peptide)	0.2 µg/mL
